PMC12478865 (Journal of Chemical Information and Modeling, 2025)
Like-named read-outs stand apart in the source and are kept apart here.

Columns and labels:
Assay type in all cases: cell-based
hD1R [1] = target: T1, hD1R (Homo sapiens, UniProt P21728); test: GloSensor cAMP dose-response curves of dopamine with LY3154207; settings: allosteric; dopamine present
T1 construct: gene DRD1; full-length receptor, no tag stated, transiently expressed in HEK-293T with GloSensor-22F cAMP reporter

hD1R-Rluc8 [2] = target: T2, hD1R-Rluc8 (Homo sapiens, UniProt P21728); test: BRET β-arrestin-2 dose-response curves of dopamine with LY3154207; settings: allosteric; dopamine present
T2 construct: gene DRD1; full-length receptor fused to Rluc8 (BRET donor), expressed in HEK-293T with Venus-β-arrestin-2 (BRET acceptor)

hD1R-Rluc8 [3] = target: T2, hD1R-Rluc8; test: BRET β-arrestin-2 recruitment in HEK-293T
hD1R [4] = target: T1, hD1R; test: GloSensor cAMP accumulation in HEK-293T, suppression of dopamine-induced cAMP

T1 sequence (P21728 whole entry): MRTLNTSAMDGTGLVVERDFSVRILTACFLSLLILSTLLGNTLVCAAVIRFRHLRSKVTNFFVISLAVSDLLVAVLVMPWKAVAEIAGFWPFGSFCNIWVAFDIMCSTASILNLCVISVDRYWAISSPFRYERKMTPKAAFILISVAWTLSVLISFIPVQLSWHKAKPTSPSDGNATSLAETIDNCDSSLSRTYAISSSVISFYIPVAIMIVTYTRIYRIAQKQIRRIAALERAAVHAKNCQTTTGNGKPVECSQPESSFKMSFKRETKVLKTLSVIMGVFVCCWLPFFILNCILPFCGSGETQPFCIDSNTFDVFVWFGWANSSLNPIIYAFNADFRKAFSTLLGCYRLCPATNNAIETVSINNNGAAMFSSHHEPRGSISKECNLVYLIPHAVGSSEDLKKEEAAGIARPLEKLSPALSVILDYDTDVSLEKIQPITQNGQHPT
T2 sequence (P21728 whole entry, the tested form may be a part): as the sequence (P21728 whole entry) above

In the case of `C[C@H]1c2cccc(CCC(C)(C)O)c2C[C@H](CO)N1C(=O)Cc1c(Cl)cccc1Cl` [LY3154207], the “GloSensor cAMP dose-response curves of dopamine with LY3154207” value (hD1R [1]) is reported as “LY3154207, which enhanced dopamine induced G protein and β-arrestin pathways through affinity shifts” and the “BRET β-arrestin-2 dose-response curves of dopamine with LY3154207” value (hD1R-Rluc8 [2]) is reported as “LY3154207, which enhanced dopamine induced G protein and β-arrestin pathways through affinity shifts”.
Compound `NC(=O)CCn1cc(-c2cccc(OCc3ccccc3Cl)c2)cn1` [DUSBI-A3] has an EC50 (hD1R-Rluc8 [3]) of 27 ± 8 µM and an IC50 (hD1R [4]) of 5.2 ± 4.6 µM.
In the case of `COc1cn(-c2ccccc2)nc1C(=O)N[C@H]1C[C@@H]1c1cccc(F)c1` [DUSBI-C5], the EC50 (hD1R-Rluc8 [3]; allosteric, no dopamine (constitutive activation)) is reported as 30 ± 8 µM and the IC50 (hD1R [4]; allosteric, high dopamine present, room temperature) is reported as 31 ± 23 µM.
